From ChEMBL document CHEMBL1157539, “Thousands of chemical starting points for antimalarial lead identification” (Nature, 2010) come the findings set out here.

The test system of this assay is Plasmodium falciparum. As to the kind of experiment: GSK_TCMDC: Inhibition of Plasmodium falciparum 3D7 in whole erythrocytes, using parasite LDH activity as an index of growth. In kind it is functional, organism-based. The settings on record: Plasmodium falciparum, 3D7.
Turning to `O=C(/C=C/c1ccc(Cl)c(Cl)c1)NCCCCCN1CCC(C(=O)Nc2ccc3c(c2)OCO3)CC1`, the XC50 came out at 839 nM. For the compound `CC(C)c1sc(N2CCCCC2)nc1C(=O)Nc1ccc(F)cc1C(F)(F)F`, the XC50 came to 239 nM.

For `CCCCSc1nc2c(c(=O)n1Cc1ccco1)C1(CCCCC1)Cc1ccccc1-2`, the XC50 came out at 958 nM. The compound `Cc1cc(NCCC(=O)Nc2ccccc2)nc(NCCc2ccccc2)n1` displayed an XC50 of 852 nM. As for `CNC(=O)c1cc(NCCCNCc2ccc(Cl)c(C(F)(F)F)c2)nc2ccccc12`, the XC50 is 931 nM.

`Cc1cc(N[C@@H](Cc2ccccc2)C(=O)NC2CCCC2)nc(NCC2CCCCC2)n1` showed an XC50 of 1170 nM. In turn, `O=S1(=O)NC2(CCN(CCc3ccc(Cl)cc3)CC2)Nc2cc(F)cc(F)c21` registered an XC50 of 1460 nM. `CS(=O)(=O)NCCCNCc1cccc(-c2csc(-c3nc4ccccc4[nH]3)c2)c1` came in with an XC50 of 1010 nM. For `CS(=O)(=O)c1ccc(CCNCc2ccc(-c3ccc(CN(C(=O)C4CC(=O)c5ccccc54)C4CCN(Cc5ccccc5)CC4)cc3)nc2)cc1` (stereo not drawn), the XC50 amounted to 592 nM. `CC1CCc2sc(-c3nnc(SC(C)C(=O)N4CCCC4)o3)cc2C1` (stereo not drawn) had an XC50 of 878 nM. For the compound `COc1ccc(CNCc2ccsc2)cc1-c1ccc(S(=O)(=O)NCCN2CCCC2)c(C)c1`, the XC50 was determined as 898 nM. In turn, `CN(C)CCOc1ccc(-c2cc(-c3ccc(Cl)c(O)c3)c(-c3ccnc(N)n3)o2)cc1` came in with an XC50 of 1320 nM. In turn, `Clc1ccc2c(NN=Cc3cccs3)ccnc2c1` came in with an XC50 of 922 nM. In turn, `CC1(C)NC(N)=NC(=N)N1OCCCOc1cccc2ccccc12` registered an XC50 of 3.2 nM. Compound `CCN(CC)CCCNc1nccc(N2CCc3ncnc(Nc4ccc(OCc5cccc(F)c5)c(Cl)c4)c3C2)n1` gave an XC50 of 111 nM. In the case of `COc1ccc(-c2cc(-c3nc4cc(C(=O)N5CCOCC5)ccc4[nH]3)c(=O)n(C)c2)cc1OC`, the XC50 is 863 nM. Turning to `NS(=O)(=O)c1cccc(Br)c1`, the XC50 amounted to 888 nM. With `COc1ccc2c(=NN=CC=Cc3ccccc3)cc(C)[nH]c2c1`, the XC50 stood at 842 nM. In turn, `Cc1cc(N[C@@H](CC(C)C)C(=O)NCc2cccs2)nc(NCCc2ccc(F)cc2)n1` displayed an XC50 of 800 nM. The figure for `CCc1ccc(NC(=O)c2cccc(CN3CCCN(Cc4cccc(O)c4)CC3)c2)cc1` is 894 nM; for `Cc1nnsc1C(=O)Nc1cccc(-c2ccc(-c3nc4cc(F)ccc4[nH]3)s2)c1` it is 889 nM. Take `COc1ccc2c(c1)CC(NCc1ccc(-c3ccc4nc[nH]c4c3)cc1)C2` (stereo not drawn): the XC50 amounted to 880 nM. The compound `COc1ccc2nccc(N3CCC(O)(CCNCc4ccc5c(n4)NC(=O)CO5)CC3)c2n1` came in with an XC50 of 819 nM. The compound `COC(=O)CCn1c(C2CCN(CC3CCC(NC(=O)/C=C/c4ccc(Cl)c(Cl)c4)CC3)CC2)nc2ccccc21` (stereo not drawn) came in with an XC50 of 951 nM. Take `CN1CCN(c2ccnc3ccc(NC(=O)Nc4cccc5c(C#N)cccc45)cc23)CC1`: the XC50 is 1050 nM.

`O=C(c1ccccc1)N1CCC(CN2CCOC(c3ccccc3)(c3ccccc3)C2)CC1`: the XC50 stood at 497 nM.

As to `Cc1ccccc1C1CCN(c2ncc(C(=O)Nc3ccccc3)cc2Cl)CC1`, the XC50 came out at 1010 nM.

For `N#Cc1ccc(CN2CCC(Oc3ccc(NC(=O)c4ccco4)cc3Cl)C2)cc1` (stereo not drawn), the XC50 is 331 nM. Then `COc1ccc2nccc([C@@H](O)CN3CCC(NCc4cc5ccccn5n4)CC3)c2c1`, with 1570 nM; and `Cc1ccc(NC(=O)c2ccc(NCCCN3CC(C)CC(C)C3)c([N+](=O)[O-])c2)cc1F` (stereo not drawn), with 711 nM. `COc1ccc(CCNc2nc(N)c3cc(OC)c(OC)cc3n2)cc1` returned an XC50 of 1120 nM.

The compound `O=C(NCCCCN1CC=C(c2ccc3c(c2OCC2CC2)CCCC3)CC1)c1ccc(-c2ccc(C(F)(F)F)cc2)cc1` showed an XC50 of 540 nM. Consider `Fc1ccc(C2N=C(SCCSC3=NC(c4ccc(F)cc4)C(c4ccc(F)cc4)N3)NC2c2ccc(F)cc2)cc1` (stereo not drawn), for which the XC50 amounted to 912 nM. Compound `CC(=O)Nc1ccc(CN2CCc3ccc(NS(=O)(=O)c4cccc(OCc5ccc(Cl)cc5)c4)cc3CC2)s1` came in with an XC50 of 906 nM. As for `CCCCCCN1CCC(NCc2cccc(C#N)c2)CC1`, the XC50 came out at 778 nM.

Turning to `COc1ccc2nccc([C@@H](O)CN3CCC(NCc4ccc5c(c4)NC(=O)C(C)(C)O5)CC3)c2c1`, the XC50 was 402 nM. Take `CN(C)c1ccc(C=Cc2ccc3ccccc3n2)c(Cl)c1`: the XC50 turned out to be 436 nM. `Cc1cccc2nc(-c3cccc(-c4ccc(NC(=O)CC5NC(=O)c6ccccc65)cc4)c3)[nH]c12` (stereo not drawn): the XC50 came to 289 nM. The compound `CNCC(C)(C)c1nc(-c2ccc(Cl)c(O)c2)c(-c2ccncc2)[nH]1` displayed an XC50 of 736 nM. `CC(C)c1ccc(O)cc1Nc1ccnc2ccc(C(F)(F)F)cc12`: the XC50 turned out to be 675 nM.

As to `C=CCOC(=O)N1CCC(CNCc2ccc(-c3cccc(-c4nc5cc(F)ccc5[nH]4)c3)cc2)C1` (stereo not drawn), the XC50 came to 140 nM. Compound `COc1cccc(C(=O)OC2=C3CCC(=O)C3(C)CCC2=O)c1` (stereo not drawn) had an XC50 of 77.9 nM. With `CCOC(=O)c1ccc(-c2cnoc2-c2cc(CC)c(OC)cc2O)o1`, the XC50 worked out at 275 nM. With `COC(=O)c1ccc2nc(-c3ccc(C(=O)NCc4ccc(Cl)c(Cl)c4)cc3)[nH]c2c1`, the XC50 stood at 852 nM. With `Cc1c(Cl)ccc2c(C(=O)Nc3ccncc3)cc(-c3cccnc3)nc12`, the XC50 came to 777 nM. Compound `O=C(Nc1ccc2c(c1)CCN(C1CCC1)CC2)c1cn(-c2ccccc2)nc1-c1ccccc1` gave an XC50 of 808 nM. `Cc1nc(-c2ccc(C(F)(F)F)cn2)sc1C(=O)N1CCc2cc3nccc(N4CCN5CCC[C@H]5C4)c3cc21` yielded an XC50 of 784 nM. Regarding `CCN1CCCC(Nc2ccnc3cc4ccccc4cc23)C1` (stereo not drawn), the XC50 is 104 nM. `CCN(CC)Cc1cccc(-c2cc3c(-c4ccc(C(=O)O)c(C(C)C)c4)ccnc3[nH]2)c1OC`: the XC50 was 323 nM. Compound `Fc1ccc(Nc2nnc(CNC3CCN(Cc4ccc(Cl)c(Cl)c4)CC3)[nH]2)cc1` yielded an XC50 of 1380 nM. As to `CC(C)(C)c1nn(-c2ccccc2)c2[nH]c(=O)c(CNC3CCCC3)cc12`, the XC50 came to 850 nM.

`CC(C)(C)c1ccc(NC(=O)c2cccc(CN3CCCN(Cc4cccc(O)c4)CC3)c2)cc1` gave an XC50 of 552 nM. `O=c1cc(NCCCN(Cc2ccccc2)Cc2ccccc2)[nH]c2ccccc12`: the XC50 was found to be 577 nM. Then `O=C(NCc1ccccc1[S+]([O-])c1ccccc1CO)C(F)(F)F` (stereo not drawn), with 184 nM; and `Cc1cccc2nc(-c3cccc(-c4cccc(NC(=O)CCc5c[nH]cn5)c4)c3)[nH]c12`, with 553 nM. Regarding `CCc1cn(CCS(C)(=O)=O)c2ccc(C(=O)N[C@@H](Cc3ccccc3)[C@H](O)CNC(C)(C)CCCC(C)C)cc12`, the XC50 is 877 nM.

`Cc1cccc2nc(-c3cccc(-c4cccc(NC(=O)c5cncn5C)c4)c3)[nH]c12`: the XC50 is 167 nM.

In turn, `CN(C)CCCOc1ccc(CCNCc2cccc(Oc3ccc(Cl)cc3)c2)cc1` gave an XC50 of 887 nM. Consider `CC(C)CNCc1ccc(-c2cccc(CNc3ccc4ncccc4c3)c2)cc1`, for which the XC50 is 913 nM. `CSc1cccc(NC(=O)c2cc3ccccc3oc2=O)c1` registered an XC50 of 833 nM. In turn, `CN(CCCc1c[nH]c2ccccc12)CC1CCN(C(=O)/C=C/c2ccc(Cl)c(Cl)c2)CC1` returned an XC50 of 747 nM.

As for `COc1ccc(CCNc2nc(SCc3ccccc3Cl)nc3ccccc23)cc1OC`, the XC50 came out at 943 nM. On to `Clc1cccc(C23N/C(=N\c4nc5ccccc5[nH]4)NC2(c2ccccc2)N/C(=N\c2nc4ccccc4[nH]2)N3)c1` (stereo not drawn), for which the XC50 amounted to 519 nM.
